From US8431597B2, “Benzimidazole derivatives” (Pfizer Inc., priority 2007, dated 2013)
Counter-ions that a name gives are not always drawn.

Molecular target: T1, Smoothened (SMO) (Mus musculus, UniProt P56726)
T1 construct: C3H10T1/2 cells (ATCC #CCL-226) were split and seeded; endogenous in cells; host or cells: C3H10T1/2 (ATCC #CCL-226)
Test: Smoothened (SMO)/Sonic Hedgehog (SHh) Transient Transcriptional Activation Assay (Gli-luciferase reporter in C3H10T1/2 cells)
Format: cell-based, murine
Conditions: transfected C3H10T1/2 cells, recombinant human SHh 250 ng/mL, 20 hours, luciferase readout; for inhibition at 2 µM: C3H 10T1/2, 2 μM compound, read-out: SMO CELL % INHIBITION @ 2 μM
Method: As noted above, the compounds of the invention are useful as inhibitors of SMO. • Methods for determining the in vitro activity of these compounds are described below: Smoothened (SMO)/Sonic Hedgehog (SHh) Transient Transcriptional Activation Assay
On Day 1, 2×10^6 C3H10T1/2 cells (ATCC #CCL-226) were split and seeded in 12 mL of growth medium Basal Medium Eagle (BME, Invitrogen #21010-046) supplemented with 2 mM L-glutamine (Invitrogen #25030-081), 0.1 units/mL penicillin and 0.1 μg/mL streptomycin (Invitrogen #15140-122), and 10% Fetal Bovine Serum (FBS, Invitrogen #16140-071) in a T-75 flask (Costar #3376). They were allowed to attach for 4 hours at 37° C., 5% CO2. The cells were then transfected using Fugene 6 (Roch #11 814 443 001) in the following reaction: 48 μL Fugene 6 and 745 μL Opti-MEM (Invitrogen #31985-070) were mixed and allowed to sit at room temperature for 5 minutes. 8 μg of pGL4.14/mGli(CS) DNA (10× murine Gli response elements and minimal CS promoter) and 0.5 μg of pEGFP DNA (Clontech) were added, gently mixed and incubated at room temperature for 20 minutes. This entire transfection mix was then added to the T-75 flask containing the cells. The cells were incubated at 37° C., 5% CO2 for 18-24 hours.
On Day 2, the transfected cells were trypsinized and seeded into white 96 well plates (Costar #3917) in 100 μL/well of growth medium at a concentration of 20,000 cells/well. The cells were allowed to recover for 4 hours before adding serum starvation medium Dulbecco's Modified Eagle Medium (DMEM, Invitrogen #21063-029) supplemented with 2 mM L-glutamine, 0.1 units/mL penicillin and 0.1 μg/mL streptomycin, and 0.5% Calf Serum (CS, Invitrogen #26170-043). The growth media was aspirated off, and the cells were rinsed with 100 μL of starvation media. 95 μL of starvation media was then added to each well. The cells were incubated for 20 hours at 37° C., 5% CO2.
On Day 3, cells were dosed with test compounds at a final concentration ranging from 2 μM to 2 nM. Immediately after dosing cells with compounds, recombinant human sonic hedgehog (SHh, R&D Systems #1845-SH) was add to a final concentration of 250 ng/mL. A 25 μg vial of SHh was reconstituted with 250 μL PBS/0.1% BSA to give a 100 ng/μL working stock. This working stock was then diluted 1:20 in starvation media. The transfected cells were incubated with compounds and SHh for 20 hours at 37° C., 5% CO2.
Luciferase assays were conducted on Day 4 using Dual-Glo Luciferase assay system (Promega #E2940) according to Promega's protocol. Briefly, Dual-Glo luciferase reagent was made up and 100 μL were added to each well of the 96 well plate containing media. Plates were shaken at room temperature for 10 minutes, and then read on TopCount (Perkin-Elmer). The luminescence was recorded.

T1 sequence (P56726 33-793): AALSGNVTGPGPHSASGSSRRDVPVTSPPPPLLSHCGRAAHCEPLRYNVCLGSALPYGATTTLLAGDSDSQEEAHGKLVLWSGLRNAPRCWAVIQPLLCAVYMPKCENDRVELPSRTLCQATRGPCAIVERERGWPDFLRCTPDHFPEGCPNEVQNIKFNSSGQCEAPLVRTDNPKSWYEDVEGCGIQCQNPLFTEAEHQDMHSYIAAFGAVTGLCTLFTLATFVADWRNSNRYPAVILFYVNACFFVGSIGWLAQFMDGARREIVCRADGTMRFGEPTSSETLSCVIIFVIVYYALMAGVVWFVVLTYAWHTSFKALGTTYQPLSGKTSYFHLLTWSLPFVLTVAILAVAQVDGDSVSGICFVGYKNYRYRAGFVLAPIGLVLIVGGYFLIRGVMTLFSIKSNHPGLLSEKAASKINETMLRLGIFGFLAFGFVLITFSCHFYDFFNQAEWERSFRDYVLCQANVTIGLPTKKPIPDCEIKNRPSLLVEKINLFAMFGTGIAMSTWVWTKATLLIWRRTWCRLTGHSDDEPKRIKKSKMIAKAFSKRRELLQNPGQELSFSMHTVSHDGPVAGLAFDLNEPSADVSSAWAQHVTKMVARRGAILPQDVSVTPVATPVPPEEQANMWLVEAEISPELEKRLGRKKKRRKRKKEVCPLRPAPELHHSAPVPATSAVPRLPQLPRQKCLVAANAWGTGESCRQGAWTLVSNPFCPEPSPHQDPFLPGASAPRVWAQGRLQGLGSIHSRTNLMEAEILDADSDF

Row | Compound | inhibition at 2 µM | SMO CELL % INHIBITION @ 2 μM (2 μM compound, 2 µM)
1 | COc1ccc2nc([C@@H]3C[C@H](NC(=O)Nc4ccc(Cl)c(C(F)(F)F)c4)CN3C)[nH]c2c1 [Example 25, 1-[4-chloro-3-(trifluoromethyl)phenyl]-3-[(3S,5S)-5-(6-methoxy-1H-benzimidazol-2-yl)-1-methylpyrrolidin-3-yl]urea] | 105% | 
2 | CN1CC[C@@H](NC(=O)Cc2nc3ccccc3o2)C[C@@H]1c1nc2ccccc2[nH]1 [Example 114, N-[(2R,4R)-2-(1H-benzimidazol-2-yl)-1-methylpiperidin-4-yl]-2-(1,3-benzoxazol-2-yl)acetamide trifluoroacetate] | 75.5% | 
3 | CN1CC[C@@H](NC(=O)Nc2ccncc2)C[C@@H]1c1nc2ccccc2[nH]1 [Example 16, 1-[(2R,4R)-2-(1H-benzimidazol-2-yl)-1-methylpiperidin-4-yl)-3-pyridin-4-ylurea hydrochloride] | 111% | 
4 | CN1CC[C@@H](NC(=O)Cc2cccc(F)c2)C[C@@H]1c1nc2ccccc2[nH]1 [Example 123, N-[(2R,4R)-2-(1H-benzimidazol-2-yl)-1-methylpiperidin-4-yl]-2-(3-fluorophenyl)acetamide trifluoroacetate] | 52.2% | 
5 | COc1ccc(NC(=O)N[C@@H]2CCN(C)[C@@H](c3nc4cc(C(F)(F)F)ccc4[nH]3)C2)cn1 [Example 135, 1-(6-methoxypyridin-3-yl)-3-{(2R,4R)-1-methyl-2-[5-(trifluoromethyl)-1H-benzimidazol-2-yl]piperidin-4-yl}urea hydrochloride] | 104% | 
6 | Cc1ccc2nc([C@@H]3C[C@H](NC(=O)Nc4ccc(Cl)c(C(F)(F)F)c4)CN3C)[nH]c2c1 [Example 22, 1-[4-chloro-3-(trifluoromethyl)phenyl]-3-[(3S,5S)-1-methyl-5-(6-methyl-1H-benzimidazol-2-yl)pyrrolidin-3-yl]urea] | 102% | 
7 | COc1ccc(NC(=O)N[C@@H]2CCN(C)[C@@H](c3nc4cc(C)c(C)cc4[nH]3)C2)cn1 [Example 138, 1-[(2R,4R)-2-(5,6-dimethyl-1H-benzimidazol-2-yl)-1-methylpiperidin-4-yl]-3-(6-methoxypyridin-3-yl)urea hydrochloride] | 108% | 
8 | Cc1ccc(NC(=O)N[C@@H]2CCN(C)[C@@H](c3nc4cc(C#N)ccc4[nH]3)C2)cn1 [Example 127, 1-[(2R,4R)-2-(5-cyano-1H-benzimidazol-2-yl)-1-methylpiperidin-4-yl]-3-(6-methylpyridin-3-yl)urea hydrochloride] | 103% | 
9 | COc1ccc(NC(=O)N[C@@H]2CCN(C)[C@@H](c3nc4ccccc4[nH]3)C2)cc1 [Example 37, 1-[(2R,4R)-2-(1H-benzimidazol-2-yl)-1-methylpiperidin-4-yl]-3-(4-methoxyphenyl)urea hydrochloride] | 106% | 
10 | CN1CC[C@@H](NC(=O)Cn2ncc3ccccc32)C[C@@H]1c1nc2ccccc2[nH]1 [Example 109, N-[(2R,4R)-2-(1H-benzimidazol-2-yl)-1-methylpiperidin-4-yl]-2-(1H-indazol-1-yl)acetamide trifluoroacetate] | 85.2% | 
11 | O=C(N[C@@H]1CCN(CC2CC2)[C@@H](c2nc3ccccc3[nH]2)C1)c1ccc2c(c1)OCCO2 [Example 89, N-[(2R,4R)-2-(1H-benzimidazol-2-yl)-1-(cyclopropyl-methyl)piperidin-4-yl]-2,3-dihydro-1,4-benzodioxine-6-carboxamide hydrochloride] | 88.2% | 
12 | O=C(N[C@@H]1CN[C@H](c2nc3ccccc3[nH]2)C1)c1ccc2c(c1)OCCO2 [Example 9, N-[(3S,5S)-5-(1H-benzimidazol-2-yl)pyrrolidin-3-yl]-2,3-dihydro-1,4-benzodioxine-6-carboxamide] |  | 65.00%
13 | CN1CC[C@@H](NC(=O)c2ccc3c(c2)OCCO3)C[C@@H]1c1nc2ccc(F)cc2[nH]1 [Example 45, N-[(2R,4R)-2-(6-fluoro-1H-benzimidazol-2-yl)-1-methylpiperidin-4-yl]-2,3-dihydro-1,4-benzodioxine-6-carboxamide hydrochloride] | 105% | 
14 | CN1CC[C@@H](NC(=O)c2cc3c(cc2Cl)OCCO3)C[C@@H]1c1nc2ccccc2[nH]1 [Example 147, N-[(2R,4R)-2-(1H-benzimidazol-2-yl)-1-methylpiperidin-4-yl]-7-chloro-2,3-dihydro-1,4-benzodioxine-6-carboxamide triflouroacetate] | 69.5% | 
15 | Cc1ccc2[nH]c([C@H]3C[C@H](NC(=O)Nc4ccc(C#N)cc4)CCN3C)nc2c1 [Example 36, 1-(4-cyanophenyl)-3-[(2R,4R)-1-methyl-2-(5-methyl-1H-benzimidazol-2-yl)piperidin-4-yl]urea hydrochloride] | 107% | 
16 | Cc1ccc(NC(=O)N[C@@H]2CCN(C)[C@@H](c3nc4ccc(Cl)cc4[nH]3)C2)cn1 [Example 126, 1-[(2R,4R)-2-(6-chloro-1H-benzimidazol-2-yl)-1-methylpiperidin-4-yl]-3-(6-methylpyridin-3-yl)urea hydrochloride] | 110% | 
17 | CN1CC[C@@H](NC(=O)Nc2ccc(-c3ccccc3)s2)C[C@@H]1c1nc2ccccc2[nH]1 [Example 90, 1-[(2R,4R)-2-(1H-benzimidazol-2-yl)-1-methylpiperidin-4-yl]-3-(5-phenyl-2-thienyl)urea hydrochloride] | 87.9% | 
18 | CN1CC[C@@H](NC(=S)c2ccc3c(c2)OCCO3)C[C@@H]1c1nc2ccccc2[nH]1 [Example 140, N-[(2R,4R)-2-(1H-benzimidazol-2-yl)-1-methylpiperidin-4-yl]-2,3-dihydro-1,4-benzodioxine-6-carbothioamide hydrochloride] | 107% | 
19 | CN1CC[C@@H](NC(=O)Nc2ccc(C#N)nc2)C[C@@H]1c1nc2ccccc2[nH]1 [Example 54, 1-[(2R,4R)-2-(1H-benzimidazol-2-yl)-1-methylpiperidin-4-yl]-3-(6-cyanopyridin-3-yl)urea hydrochloride] | 105% | 
20 | CN1CC[C@@H](NC(=O)Cc2ccccc2)C[C@@H]1c1nc2ccccc2[nH]1 [Example 110, N-[(2R,4R)-2-(1H-benzimidazol-2-yl)-1-methylpiperidin-4-yl]-2-phenylacetamide trifluoroacetate] | 83.2% | 
21 | COc1ccc(NC(=O)N[C@@H]2CCN(C)[C@@H](c3nc4cc(C#N)ccc4[nH]3)C2)cn1 [Example 134, 1-[(2R,4R)-2-(5-cyano-1H-benzimidazol-2-yl)-1-methylpiperidin-4-yl]-3-(6-methoxypyridin-3-yl)urea hydrochloride] | 105% | 
22 | COc1ccc2nc([C@@H]3C[C@H](NC(=O)Nc4ccc(Cl)c(C(F)(F)F)c4)CN3)[nH]c2c1 [Example 20, 1-[4-chloro-3-(trifluoromethyl)phenyl]-3-[(3S,5S)-5-(6-methoxy-1H-benzimidazol-2-yl)pyrrolidin-3-yl]urea] | 63% | 
23 | CSc1ccccc1C(=O)N[C@@H]1CCN(C)[C@@H](c2nc3ccccc3[nH]2)C1 [Example 107, N-[(2R,4R)-2-(1H-benzimidazol-2-yl)-1-methylpiperidin-4-yl]-2-(methylthio)benzamide trifluoroacetate] | 88.3% | 
24 | CC(=O)c1c(C)[nH]c(C(=O)N[C@@H]2CCN(C)[C@@H](c3nc4ccccc4[nH]3)C2)c1C [Example 50, 4-acetyl-N-[(2R,4R)-2-(1H-benzimidazol-2-yl)-1-methylpiperidin-4-yl]-3,5-dimethyl-1H-pyrrole-2-carboxamide hydrochloride] | 105% | 
25 | CN(C)c1ccc(NC(=O)N[C@@H]2CCN(C)[C@@H](c3nc4ccccc4[nH]3)C2)cc1 [Example 56, 1-[(2R,4R)-2-(1H-benzimidazol-2-yl)-1-methylpiperidin-4-yl]-3-[4-(dimethylamino)phenyl]urea hydrochloride] | 104% | 
